Data reported in US8426447B2, “Spiro-tricyclic ring compounds as beta-secretase modulators and methods of use” (Amgen Inc., priority 2008, dated 2013).
Each block holds one molecule with its values, some of them ahead of it.

Columns and labels:
[1] = target: T1, BACE1 (Homo sapiens, UniProt P56817); experiment: In Vitro BACE Cell-based Assay (HEK cell assay): Aβ40 in conditioned medium of cells stably expressing Amyloid Precursor Protein, sandwich ELISA; settings: read-out: HEK cell assay
Method in brief: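 HEK cells stably expressing APP were treated 24 h with compound in 10-point dose response starting at 100 or 10 μM (0.1% DMSO). Secreted Aβ40 quantified by sandwich ELISA (pAb40 capture, biotinylated 6E10 detection, europium time-resolved fluorescence), with IC50 derived from percent inhibition versus concentration.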

[2] = target: T1, BACE1; experiment: In Vitro Enzymatic BACE FRET (Fluorescence Resonance Energy Transfer) Assay; assay type: biochemical; settings: read-out: BACE1 FRET assay
Method in brief: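 Fluorescence read-out after Tris addition raises pH to neutrality and ends the reaction. Before that, a peptide substrate carrying fluorophore and quencher across the BACE cleavage site (50 nM) is incubated with enzyme for one hour at pH 4.2 in acetate containing 10% DMSO and sub-micellar genapol.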

[3] = HEK cell-based assay, Aβ40 in conditioned medium, IC50 class symbols
[4] = in vitro BACE FRET enzyme assay, IC50 class symbols

T1 sequence (P56817 46-501, species assumed): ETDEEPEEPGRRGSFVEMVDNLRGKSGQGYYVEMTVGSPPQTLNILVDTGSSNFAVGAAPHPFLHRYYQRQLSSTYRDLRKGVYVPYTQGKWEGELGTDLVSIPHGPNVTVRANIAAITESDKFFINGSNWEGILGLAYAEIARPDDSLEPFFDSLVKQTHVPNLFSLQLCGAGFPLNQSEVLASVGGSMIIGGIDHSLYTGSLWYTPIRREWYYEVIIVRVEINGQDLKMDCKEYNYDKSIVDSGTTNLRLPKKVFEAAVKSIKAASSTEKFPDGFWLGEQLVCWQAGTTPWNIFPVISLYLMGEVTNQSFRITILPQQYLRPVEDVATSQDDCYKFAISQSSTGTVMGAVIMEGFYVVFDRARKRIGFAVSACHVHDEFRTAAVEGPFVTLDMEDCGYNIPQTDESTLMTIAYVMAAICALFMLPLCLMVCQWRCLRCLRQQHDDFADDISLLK

IC50 ([1]; Table III, IC50's in uM ranges): 0.1 to 1 µM
IC50 ([2]; Table III, IC50's in uM ranges): < 0.1 µM
Structure (SMILES): COc1cc2c(cc1F)Oc1ccc(-c3cncnc3)cc1[C@@]21COC(N)=N1 [154b]

IC50 [1]: 0.1 to 1 µM
IC50 [2]: 0.1 to 1 µM
Structure (SMILES): NC1=N[C@@]2(CO1)c1cc(-c3cccnc3)ccc1Oc1ccc(-c3cccnc3)nc12 [compound 989]

IC50 [1]: < 0.1 µM
IC50 [2]: < 0.1 µM
Structure (SMILES): CC(C)(C)COc1ccc2c(c1)[C@@]1(COC(N)=N1)c1cc(-c3ccnc(F)c3)cnc1O2 [compound 752]

IC50 ([1]; Table III, IC50's in uM ranges): < 0.1 µM
IC50 ([2]; Table III, IC50's in uM ranges): < 0.1 µM
Structure (SMILES): CC(C)(O)COc1ccc2c(c1)[C@]1(COC(N)=N1)c1cc(-c3cccnc3)ccc1O2 [Example 135, (S)-1-(2-amino-2′-(pyridin-3-yl)-5H-spiro[oxazole-4,9′-xanthene]-7′-yloxy)-2-methylpropan-2-ol]

IC50 ([1]; Table IV, class symbols): 1 to 5 µM
IC50 ([2]; Table IV, class symbols): 0.1 to 1 µM
Structure (SMILES): CC(C)(C)OC(=O)CCc1ccc2c(c1)[C@]1(COC(N)=N1)c1cc(-c3cncnc3)ccc1O2 [compound 826]

IC50 [1]: 1 to 5 µM
IC50 [2]: 0.1 to 1 µM
Structure (SMILES): CC(=O)c1ccccc1-c1ccc2c(c1)[C@@]1(COC(N)=N1)c1cc(OCC(C)(C)C)ccc1O2 [compound 974]

IC50 ([1]; Table II, Aβ40, 24 h incubation): 1 to 5 µM
IC50 ([2]; Table II): < 0.1 µM
Structure (SMILES): COc1ncccc1-c1ccc2c(c1)[C@@]1(COC(N)=N1)c1cc(OCC(C)(C)C)ccc1O2 [Example 77, (4S)-2′-(2,2-dimethylpropoxy)-7′-(2-methoxy-3-pyridinyl)spiro[1,3-oxazole-4,9′-xanthen]-2-amine]

IC50 ([1]; Table III, IC50's in uM ranges): 0.1 to 1 µM
IC50 ([2]; Table III, IC50's in uM ranges): < 0.1 µM
Structure (SMILES): CC(C)OCCOc1ccc2c(c1)[C@]1(COC(N)=N1)c1cc(-c3cccnc3)ccc1O2 [compound 181]

IC50 ([1]; Table IV, class symbols): > 5 µM
IC50 ([2]; Table IV, class symbols): 1 to 5 µM
Structure (SMILES): NC1=N[C@@]2(CO1)c1cc(Br)ccc1Oc1c(F)cccc12 [compound 558]

IC50 ([1]; HEK cells): < 0.1 µM
IC50 [2]: < 0.1 µM
Structure (SMILES): CC(C)(C)CNc1cc2c(cn1)Oc1ccc(-c3cccnc3)cc1[C@@]21COC(N)=N1 [compound 440]

IC50 ([1]; Table III, IC50's in uM ranges): 0.1 to 1 µM
IC50 ([2]; Table III, IC50's in uM ranges): 0.1 to 1 µM
Structure (SMILES): COCC#Cc1ccc2c(c1)[C@@]1(COC(N)=N1)c1cc(-c3cncnc3)ccc1O2 [156b]

IC50 ([1]; Table IV, class symbols): > 5 µM
IC50 ([2]; Table IV, class symbols): > 5 µM
Structure (SMILES): COc1cnc2c(c1)[C@@]1(COC(N)=N1)c1cc(Br)ccc1O2 [compound 543]

IC50 ([1]; Table IV, class symbols): 1 to 5 µM
IC50 ([2]; Table IV, class symbols): 0.1 to 1 µM
Structure (SMILES): NC1=N[C@]2(CO1)c1cc(-c3cccnc3)ccc1Oc1c(F)cc(C3=CCOCC3)cc12 [compound 644]

IC50 ([1]; Table III, IC50's in uM ranges): 0.1 to 1 µM
IC50 ([2]; Table III, IC50's in uM ranges): < 0.1 µM
Structure (SMILES): CC(C)(C)CC(=O)c1ccc2c(c1)[C@@]1(COC(N)=N1)c1cc(-c3ccc(F)nc3)ccc1O2 [150b]

IC50 [1, 3]: < 0.1 µM
IC50 [2, 4]: < 0.1 µM
Structure (SMILES): COc1cncc(-c2ccc3c(c2)[C@@]2(COC(N)=N2)c2cc(OCC(C)(C)C)cnc2O3)c1 [compound 383]

IC50 ([1]; Table IV, class symbols): 0.1 to 1 µM
IC50 ([2]; Table IV, class symbols): 0.1 to 1 µM
Structure (SMILES): CC(C)(C)C#Cc1cnc2c(c1)[C@@]1(COC(N)=N1)c1cc(-c3cncnc3)cc(F)c1O2 [compound 538]

IC50 ([1]; Table IV, class symbols): 0.1 to 1 µM
IC50 ([2]; Table IV, class symbols): 0.1 to 1 µM
Structure (SMILES): COc1ccc2c(c1)[C@]1(COC(N)=N1)c1cc(NC(=O)[C@@H](C)OC)ccc1O2 [compound 536]

IC50 [1, 3]: 1 to 5 µM
IC50 [2, 4]: 0.1 to 1 µM
Structure (SMILES): COC(C)(C)COc1cnc2c(c1)[C@@]1(COC(N)=N1)c1cc(-c3ccccc3)ccc1O2 [compound 349]

IC50 [1, 3]: < 0.1 µM
IC50 [2, 4]: < 0.1 µM
Structure (SMILES): Cc1cncc(-c2ccc3c(c2)[C@@]2(COC(N)=N2)c2cc(C4=CCOCC4)ncc2O3)c1 [compound 326]

IC50 ([1]; Table III, IC50's in uM ranges): 1 to 5 µM
IC50 ([2]; Table III, IC50's in uM ranges): 0.1 to 1 µM
Structure (SMILES): C[C@@H]1OC(N)=N[C@]12c1cc(OCC(C)(C)C)ccc1Oc1ccc(-c3cncnc3)cc12 [126a, (4R,5S)-2′-(2,2-dimethylpropoxy)-5-methyl-7′-(5-pyrimidinyl)spiro[1,3-oxazole-4,9′-xanthen]-2-amine]

IC50 [1, 3]: < 0.1 µM
IC50 [2, 4]: < 0.1 µM
Structure (SMILES): NC1=N[C@@]2(CO1)c1cc(-c3cncnc3)ccc1Oc1c(F)cc(OCC3CCOCC3)cc12 [compound 417]

IC50 ([1]; Table IV, class symbols): < 0.1 µM
IC50 ([2]; Table IV, class symbols): 0.1 to 1 µM
Structure (SMILES): Cn1cnc(-c2ccc3c(c2)[C@]2(COC(N)=N2)c2cc(-c4cccnc4)ccc2O3)c1 [compound 554]

IC50 ([1]; Table IV, class symbols): < 0.1 µM
IC50 ([2]; Table IV, class symbols): 0.1 to 1 µM
Structure (SMILES): CN(C)CCOc1ccc2c(c1)[C@]1(COC(N)=N1)c1cc(-c3cccnc3)ccc1O2 [compound 886]

IC50 [1, 3]: 1 to 5 µM
IC50 [2, 4]: 0.1 to 1 µM
Structure (SMILES): COc1ccc2c(c1)[C@]1(COC(N)=N1)c1cc(NC(=O)COc3ccccc3)ccc1O2 [compound 374]

IC50 ([1]; Table IV, class symbols): < 0.1 µM
IC50 ([2]; Table IV, class symbols): < 0.1 µM
Structure (SMILES): CC(C)(C)C#Cc1cc2c(cn1)Oc1ccc(-c3cccnc3)cc1[C@@]21COC(N)=N1 [compound 845]

IC50 ([1]; Table III, IC50's in uM ranges): < 0.1 µM
IC50 ([2]; Table III, IC50's in uM ranges): < 0.1 µM
Structure (SMILES): CC(C)(C)C#Cc1ccc2c(c1)[C@@]1(COC(N)=N1)c1cc(-c3cccnc3)cnc1O2 [compound 160]

IC50 [1]: 0.1 to 1 µM
IC50 [2]: < 0.1 µM
Structure (SMILES): CC(C)(C)COc1ccc2c(c1)[C@]1(COC(N)=N1)c1cc(C(=O)NC3CCC3)ccc1O2 [compound 702]
